IC50 data for two compounds are collected here from US20260242359A1, “IRHOM2 INHIBITORS AND USES THEREOF” (NEW YORK SOCIETY FOR THE RELIEF OF THE RUPTURED AND …, priority 2023, published 2026).

Where only a bound is given, the exact number is not on record here.

Holding throughout (type): cell-based
The test system of experiment [1] is PMA-stimulated KL2 release from HEK-293 cells (iRhom2/ADAM17 selective substrate). The experiment in a line: Secondary screen (Example 3a): PMA-stimulated KL2 release from HEK-293 cells, AP readout. The following applies: Homo sapiens, HEK293, HEK-293 cells expressing KL2-AP, PMA 500 ng/mL, 2 h, read-out: Secondary Screen XC50 KL2. From the text:
(§1) Two separate screens to identify novel small molecule inhibitors of iRhom2/ADAM17 activity were developed. […] Therefore, the primary screen for small molecule inhibitors of iRhom2/ADAM17 was a screen for inhibitors that blocked the release of TNFα from LPS-stimulated THP-1 human myeloid cells, a process that depends on iRhom2 and ADAM17. […]
(§2) First, expression plasmids for alkaline phosphatase (AP)-fused KL2 and TGFα were designed and generated through gene synthesis followed by subcloning into the pcDNA3.1(+)/Hygro expression vector. […] During cell culturing, cell density and viability were monitored to ensure optimal conditions for the transfections. After PMA stimulation, AP-coupled KL2 or TGFα were detected by measurement of AP activity in the supernatant. […]
(§3) After electroporation, cells were further cultured in presence of selection antibiotics, hygromycin B, to generate stably transfected polyclonal cell pools. […] Final assay conditions were determined for the selected pools. […]
60 μL of cells (40,000/well) were added to a sterile 384-well plate. […] The reaction was stopped by addition of 20 μL of NaOH (1 M final conc.) and the absorbance of pNP was measured at 405 nm.

Experiment [2] has as its system PMA-stimulated TGFα release from HEK-293 cells (substrate of iRhom1/ADAM17 and iRhom2/ADAM17). In words: Counter screen (Example 4a): PMA-stimulated TGFα release from HEK-293 cells, AP readout. Conditions: Homo sapiens, HEK293, HEK-293 cells expressing TGFα-AP, PMA 100 ng/mL, 2 h, read-out: Counter Screen XC50 TGFα. As to the method:
A tertiary counterscreen was also performed to monitor the release of TGFα, which is a substrate of iRhom1/ADAM17 and iRhom2/ADAM17, so its release should not be blocked by an iRhom2-selective inhibitor (Maretzky T et al. (July 2013), “iRhom2 controls the substrate selectivity of stimulated ADAM117-dependent ectodomain shedding”, PNAS 110(28): 11433-11438; and Li X et al. (May 2015), “iRhoms 1 and 2 are essential upstream regulators of ADAM17-dependent EGFR signaling”, PNAS 112(19): 6080-6085).
as §2, §3
60 μL of cells (20,000/well) were added to a sterile 384-well plate. […] The reaction was stopped by addition of 20 μL of NaOH (1 M final conc.) and the absorbance of pNP was measured at 405 nm.
(In general: A counterscreen serves to expose hits that act by an unwanted route or on another target.)

The test system of experiment [3] is TNFα release from LPS-stimulated THP-1 cells (iRhom2/ADAM17-dependent). In words: Primary screen (Example 1a): LPS-stimulated TNFα release from THP-1 cells, HTRF. The following applies: Homo sapiens, LPS 100 ng/mL, 3 h, normalized against 50 μM Batimastat, read-out: Primary Screen XC50 TNFα. On the procedure: as §1
THP-1 cells were plated in 384 or 1,536 wells and transferred on the ultra-high throughput screening (uHTS) platform Mark III, and TNFα shedding was initiated by LPS stimulation of THP-1 cells. The extent of released TNFα was detected with the corresponding HTRF antibodies labeled with europium cryptate (donor) and d2 (acceptor). […]
7.5 nL compound and controls in DMSO [10 μM in assay; 0.25% DMSO in 3 μL Assay] were dissolved in 2 μL cell suspension [2.4E6/mL; 4800 cells/well; culture w/o PenStrep], pre-incubated at 37° C., 5% CO2, for 15 min with 1 μL LPS [100 ng/mL in 3 μL assay]. […] After an incubation at room temperature for 2 h or longer, the HTRF readout was performed. […]
In general terms: Time-resolved FRET reads energy transfer from a long-lived donor to a nearby acceptor.

For `CCC(=O)NCCc1c(/C=C2/C(=O)NC(=O)N(c3ccc(C)cc3C)C2=O)[nH]c2ccccc12` [Compound 1], the IC50 in experiment [1] is > 128 µM; in experiment [2], 12.6 µM; in experiment [3], < 0.802 µM.
The corresponding values for `CCOC(=O)c1ccc(Nc2nc3nonc3n3nnnc23)cc1` [Compound 2] are > 128 µM, 9.91 µM and < 0.802 µM.
